Source: patent US12274689B2, “Compound for the management of feline diabetes” (INCREVET, INC., priority 2019, dated 2025)

Key:
db/db mice = assay: non-fasting blood glucose in db/db mice, 28-day oral dosing (study 350); assay type: in vivo; settings: for non-fasting blood glucose concentration: n = 8
[1] = test system: healthy purpose-bred cats; assay: urinary glucose excretion in healthy cats after capsule dosing (studies 1 and 2); assay type: in vivo, cat
[2] = test system: client-owned cats diagnosed with diabetes mellitus; assay: field effectiveness study in client-owned diabetic cats; assay type: in vivo, cat; parameters: mean serum glucose: unit: mg/dL
Procedure: In a field effectiveness study, client-owned cats that had been diagnosed with diabetes mellitus based on: i) two separate fasting (≥6 h) blood glucose measurements>250 mg dL^−1; ii) glucosuria; iii) fructosamine>450 μmol L^−1 (subsequently changed to >360 μmol L^−1 due to a change in the testing laboratory methodology), and iv) one or more of the following: polyuria/polydipsia, polyphagia and/or weight loss (documented in the cat's medical records) were enrolled. Cats with suspected diabetes mellitus were evaluated during visit 1 (within 7 days prior to day 0). […] Cats were prescribed a diet for diabetic animals (Purina DM, either dry or wet variety). Cats were returned to the clinic for evaluation of glycemic control during visits 3 (day 14±3), 4 (day 28±3), and 5 (day 56±3). The treatment period was from visit 2 (day 0) through visit 5 (day 56±3). A cat could have been brought back to the clinic at any time for unscheduled visits if such visits were determined to be necessary by the owner or investigator. Eight-hour blood glucose curves (blood samples collected every 2 h±15 min for 8 h) were conducted at every visit starting with visit 2 (day 0) and blood glucose was measured using an AlphaTRAK 2 glucometer (Abbott Laboratories). Blood samples for hematology and serum chemistry were collected at screening and during each scheduled visit after initiation of dosing. A central laboratory was used to evaluate all clinical pathology samples (blood, serum, and urine) that are not analyzed in the clinic for blood glucose curves.
Serum chemistries included assessment of fructosamine. […] To accommodate the change in reference range, data were harmonized by expression as a percentage of the upper limit of normal and log-transformed percentages were analyzed by repeated measures ANCOVA with an unstructured covariance and visit as a fixed effect. The upper limit of normal for the testing laboratory for fasting serum glucose was 155 mg dL^−1. The data below were tabulated after 32 cats completed the day 56 visit.
Each cat was classified as having achieved (or not achieved) glycemic control on Day 56±3 (success/failure). Treatment success was defined as improvement of at least one blood glucose variable (BG mean<250 mg dL^−1; or fructosamine<450 μmol/L or <360 μmol/L, depending on the assay reference range at the time of the analysis), and the veterinarian's assessment of adequate glycemic control at the final evaluation. All cats that remained on-study to V5 were considered treatment successes. Of the 8 cats that were considered treatment failures, 6 cats were removed from the study following an SAE, 1 cat was removed at the sponsor's request, and 1 cat was removed due to the use of a study-proscribed medication to treat an AE. Table 3 also tallies the cats achieving a fructosamine concentration less than the upper limit of normal (356 μmol L^−1 initially and 275 μmol L^−1 subsequently).
Responsibility for assessing clinical signs of diabetes mellitus was divided between owners and treating veterinarians. Weight was recorded at each visit by the veterinarian, and the signs of polydipsia, polyuria and polyphagia were recorded at each visit by the owner, using a four-point (0 to 3) integer score in which low scores represented favorable ratings.
In addition to providing a measure of the status of the cat as a function of time, the quantitative assessments were used to produce a binary outcome of success or failure at study completion. To score as a success by weight, the weight at Visit 5 was to exceed the weight at Visit 2 (treatment initiation). To score as success by the other signs the owner score at visit 5 was to be less than the owner score at Visit 2.
Glucose curves were constructed by glucometer measurement of blood sampled at hours 0, 2, 4, 6 and 8 post-dose. […]

[3] = by visit, non-parametric test highly significant

OC[C@H]1O[C@@H](c2ccc(Cl)c(Cc3ccc(OCCOC4CC4)cc3)c2)[C@H](O)[C@@H](O)[C@@H]1O [bexagliflozin, (2S,3R,4R,5S,6R)-2-(4-chloro-3-(4-(2-cyclopropoxyethoxy)benzyl)phenyl)-6-(hydroxymethyl)tetrahydro-2H-pyran-3,4,5-triol]
non-fasting blood glucose concentration (db/db mice; 0.067 mg kg^−1 oral once a day, Day 0, mean ± SD): 565.5 ± 75.9 mg/dL
non-fasting blood glucose concentration (db/db mice; 0.067 mg kg^−1 oral once a day, Day 1, 6 h post-dose, mean ± SD): 526.0 ± 97.0 mg/dL
non-fasting blood glucose concentration (db/db mice; 0.067 mg kg^−1 oral once a day, Day 7, 6 h post-dose, mean ± SD): 459.5 ± 69.9 mg/dL
non-fasting blood glucose concentration (db/db mice; 0.067 mg kg^−1 oral once a day, Day 14, 6 h post-dose, mean ± SD): 441.7 ± 119.6 mg/dL
non-fasting blood glucose concentration (db/db mice; 0.067 mg kg^−1 oral once a day, Day 21, 6 h post-dose, mean ± SD): 497.5 ± 98.8 mg/dL
non-fasting blood glucose concentration (db/db mice; 0.067 mg kg^−1 oral once a day, Day 28, 6 h post-dose, mean ± SD): 472.1 ± 113.3 mg/dL
non-fasting blood glucose concentration (db/db mice; 0.067 mg kg^−1 oral once a day, Day −3, mean ± SD): 563.6 ± 105.2 mg/dL
non-fasting blood glucose concentration (db/db mice; 0.2 mg kg^−1 oral once a day, Day 0, mean ± SD): 590.0 ± 92.9 mg/dL
non-fasting blood glucose concentration (db/db mice; 0.2 mg kg^−1 oral once a day, Day 1, 6 h post-dose, mean ± SD): 411.3 ± 86.8 mg/dL
non-fasting blood glucose concentration (db/db mice; 0.2 mg kg^−1 oral once a day, Day 7, 6 h post-dose, mean ± SD): 390.8 ± 92.3 mg/dL
non-fasting blood glucose concentration (db/db mice; 0.2 mg kg^−1 oral once a day, Day 14, 6 h post-dose, mean ± SD): 364.7 ± 121.6 mg/dL
non-fasting blood glucose concentration (db/db mice; 0.2 mg kg^−1 oral once a day, Day 21, 6 h post-dose, mean ± SD): 379.8 ± 47.4 mg/dL
non-fasting blood glucose concentration (db/db mice; 0.2 mg kg^−1 oral once a day, Day 28, 6 h post-dose, mean ± SD): 333.5 ± 79.9 mg/dL
non-fasting blood glucose concentration (db/db mice; 0.2 mg kg^−1 oral once a day, Day −3, mean ± SD): 546.9 ± 92.8 mg/dL
non-fasting blood glucose concentration (db/db mice; 0.67 mg kg^−1 oral once a day, Day 0, mean ± SD): 574.4 ± 90.5 mg/dL
non-fasting blood glucose concentration (db/db mice; 0.67 mg kg^−1 oral once a day, Day 1, 6 h post-dose, mean ± SD): 404.3 ± 86.4 mg/dL
non-fasting blood glucose concentration (db/db mice; 0.67 mg kg^−1 oral once a day, Day 7, 6 h post-dose, mean ± SD): 370.1 ± 96.5 mg/dL
non-fasting blood glucose concentration (db/db mice; 0.67 mg kg^−1 oral once a day, Day 14, 6 h post-dose, mean ± SD): 379.6 ± 58.6 mg/dL
non-fasting blood glucose concentration (db/db mice; 0.67 mg kg^−1 oral once a day, Day 21, 6 h post-dose, mean ± SD): 300.6 ± 97.6 mg/dL
non-fasting blood glucose concentration (db/db mice; 0.67 mg kg^−1 oral once a day, Day 28, 6 h post-dose, mean ± SD): 306.7 ± 98.4 mg/dL
non-fasting blood glucose concentration (db/db mice; 0.67 mg kg^−1 oral once a day, Day −3, mean ± SD): 565.5 ± 87.5 mg/dL
non-fasting blood glucose concentration (db/db mice; 2 mg kg^−1 oral once a day, Day 0, mean ± SD): 541.6 ± 84.4 mg/dL
non-fasting blood glucose concentration (db/db mice; 2 mg kg^−1 oral once a day, Day 1, 6 h post-dose, mean ± SD): 382.7 ± 111.9 mg/dL
non-fasting blood glucose concentration (db/db mice; 2 mg kg^−1 oral once a day, Day 7, 6 h post-dose, mean ± SD): 330.8 ± 101.1 mg/dL
non-fasting blood glucose concentration (db/db mice; 2 mg kg^−1 oral once a day, Day 14, 6 h post-dose, mean ± SD): 303.5 ± 74.0 mg/dL
non-fasting blood glucose concentration (db/db mice; 2 mg kg^−1 oral once a day, Day 21, 6 h post-dose, mean ± SD): 319.7 ± 74.2 mg/dL
non-fasting blood glucose concentration (db/db mice; 2 mg kg^−1 oral once a day, Day 28, 6 h post-dose, mean ± SD): 315.2 ± 81.3 mg/dL
non-fasting blood glucose concentration (db/db mice; 2 mg kg^−1 oral once a day, Day −3, mean ± SD): 603.9 ± 88.9 mg/dL
blood glucose values, % of control (db/db mice; 28-day administration of 0.067 mg kg^−1): 79.74%
blood glucose values, % of control (db/db mice; 28-day administration of 0.2 mg kg^−1): 56.33%
blood glucose values, % of control (db/db mice; 28-day administration of 0.67 mg kg^−1): 51.81%
blood glucose values, % of control (db/db mice; 28-day administration of 2 mg kg^−1): 53.25%
blood glucose, level below which it was not reduced (db/db mice; sole agent, any dose group): ≥ 300 mg/dL
doses with undesired effects attributed to SGLT1 inhibition, multiple of doses producing the maximum pharmacodynamic effect ([1]; healthy cats): 5 to 10 times
loose stools and/or diarrhea ([1]; healthy cats exposed to the higher quantities): dose-dependent increase in the severity of loose stools and/or diarrhea
dose at which the maximum glucosuria was observed ([1]; healthy cats, gelatin capsules, urinary glucose excretion over 24 h after dosing): approximately 3 mg kg^−1
treatment effect on the gain in body mass per cat ([2]; baseline to week 8, p<0.0001): highly significant
cats that either maintained or increased their weight ([2]; by day 56): 82%
mean owner scores for polydipsia [2, 3]: declined
mean owner scores for polyuria [2, 3]: declined
mean owner scores for polyphagia ([2]; by visit, non-parametric test significant): declined
weight of case 5 at study end ([2]; case 5, decreased from 5.4 kg): 5.1 kg
treatment outcome of cats with IGF-1 above the upper limit of normal (92 nmol/L) ([2]; cases 7, 28 and 30, V5): All three cases were considered treatment successes
symptomatic hypoglycemia ([2]; diabetic cats, field study): None of the cats exhibited a symptomatic hypoglycemia
Veterinarian Glycemic Control Criteria Met ([2]; individual cats, V5): Yes
Mean BG Criteria Met ([2]; individual cats, V5, BG mean <250 mg dL^−1): Yes
cats removed from the study following an SAE ([2]; of 40 cats enrolled): 6 cats
Any Success, Col Sum (number of cats) ([2]; of 40 enrolled cats): 31
Non-Weight Success, Col Sum (number of cats) ([2]; of 40 enrolled cats): 30
Polydipsia Success, Col Sum (number of cats) ([2]; of 40 enrolled cats): 23
Polyphagia Success, Col Sum (number of cats) ([2]; of 40 enrolled cats): 17
Polyuria Success, Col Sum (number of cats) ([2]; of 40 enrolled cats): 24
Weight Success, Col Sum (number of cats) ([2]; of 40 enrolled cats): 22
cats achieving a fructosamine concentration below the upper limit of normal ([2]; of the 32 cats completing the study): 26 cats
average cat weight ([2]; over the course of the study): increased
cats considered treatment successes ([2]; thirty-two of the 40 cats enrolled, Day 56±3): 80%
fructosamine of cats with elevated IGF-1 ([2]; three cats with elevated serum IGF-1): achieved a normal fructosamine concentration
mean serum β-hydroxybutyrate concentration ([2]; week 8, 95% CI 1.40, 2.20, upper limit of normal 1.9 mg dL^−1): 1.76 mg/dL
mean serum fructosamine, % of the upper limit of normal ([2]; week 8, 95% CI 80.0%, […]): 86.7%
mean serum glucose ([2]; week 8, 95% CI 127, 163): 144
mean of the five blood glucose determinations ([2]; week 8, in-clinic blood glucose curve, 95% CI 102.8, 128.4): 114.9 mg/dL
